Consider two molecules from patent publication US5440014A, “Fibronectin binding peptide” (priority 1990, dated 1995).

In one assay the test system is spirochetes. To be noted: cited from earlier work.
The subject of a further assay is Treponema palladium. Particulars: Thomas et al., 1985b; cited from earlier work.
Another assay concerns Trypanosoma cruzi. Particulars: Ouaissi et al., 1986; cited from earlier work.
The target of a further assay is Human fibronectin (human, UniProt P02751, ^125 I-labeled (chloramine T iodination)). Description: synthetic peptide; inhibition of 125I-HFN binding to S. aureus 8325-4 cells.

For RGDS, the “attachment of spirochetes to cultured human cells” value in the assay with spirochetes was “blocked the attachment”. Also, the “prevention of fibronectin binding to Treponema palladium” value in the assay on Treponema palladium was “Binding was also prevented”. Also, the “prevention of fibronectin binding to Trypanosoma cruzi” value in the assay with Trypanosoma cruzi was “Binding was also prevented”.

B1: Peptide S20-33 (peptide)
peptide: QFGGHNSVDFEEDT
As to B1, the binding result with Human fibronectin was “no binding”.
